In experiment [1] the test system is C. elegans ben-1 mutant strains ECA882, ECA917, ECA1075, ECA1080, CB3474. Format: cell-based, Caenorhabditis elegans. Particulars: score 0-1 relative to DMSO, values >1 set to 1.
The next experiment concerns H. polygyrus. Particulars: cited from earlier work.
The target in the next experiment is C. briggsae complex I (Caenorhabditis briggsae, UniProt A8X476+A8XFG2+Q8HEC4). In words: In vitro complex I activity assay, C. briggsae mitochondria. In kind it is biochemical. The method, then: Mitochondria were isolated from the following free-living nematode strains: C. elegans—N2, CB3474, ECA882, ECA917, ECA1075, ECA1080; C. briggsae—AF16; P. pacificus—PS312; and P. hermaphrodita—B178. With the exception of the P. hermaphrodita strain B178, adult worms of each strain were grown in bulk through liquid culture to obtain mitochondria in sufficient quantities. Due to poor growth in liquid media, mixed stage populations of P. hermaphrodita were washed off and collected from NGM plates seeded with OP50. The isolation of mitochondria from all free-living nematode strains followed the protocol previously outlined in Burns et al.[24]. In brief, a 1 L saturated culture of E. coli HB101 was concentrated 20-fold in 50 mL complete S-medium. ~500,000 L1 worms synchronized from an embryo preparation performed the day prior were added to the S-media/HB101 suspension and grown to adulthood over the course of 3.5 days at 20 °C with shaking at 165 rpm. Following growth, worms were collected in 10 ×15 mL conical tubes and washed 7 times in M9 buffer. Worm suspensions were then combined into a single 15 mL conical tube and diluted to a final volume of 15 mL with M9 buffer. 1 mL aliquots of worm suspension were then distributed to 15 × 1.5 mL screw-cap microcentrifuge tubes and were pelleted at 500 g for 1 min. Excess M9 was aspirated without disturbing the worm pellet. 600 μL ice-cold isolate buffer A (250 mM sucrose, 10 mM Tris (pH 7.5), 1 mM EDTA, 1 mM PMSF (freshly prepared)) and 300 μL cold glass beads were then added to each tube. Tubes were incubated on ice for 10 min, and the worms were then lysed by bead beating (6 x 30 s, with 1 min cooling intervals). Tubes containing worm lysate were centrifuged at 1,000 g for 10 min at 4 °C and the supernatant was transferred to 15 new microcentrifuge tubes on ice. The tubes were centrifuged a second time at 1,000 g for 10 min at 4 °C and the supernatant was once again transferred to 15 new microcentrifuge tubes on ice. These tubes were then centrifuged at 16,000 g for 10 min at 4 °C. The resulting mitochondrial pellet was washed twice by re-suspension in 300 μL of ice-cold isolate buffer B (250 mM sucrose, 10 mM Tris (pH 7.5), 1 mM EDTA). Following the final wash, isolation buffer was aspirated from each tube and the pellets were flash-frozen in ethanol/dry ice and stored at −80 °C until needed.
Chain of C. briggsae complex I (A8X476 31-482): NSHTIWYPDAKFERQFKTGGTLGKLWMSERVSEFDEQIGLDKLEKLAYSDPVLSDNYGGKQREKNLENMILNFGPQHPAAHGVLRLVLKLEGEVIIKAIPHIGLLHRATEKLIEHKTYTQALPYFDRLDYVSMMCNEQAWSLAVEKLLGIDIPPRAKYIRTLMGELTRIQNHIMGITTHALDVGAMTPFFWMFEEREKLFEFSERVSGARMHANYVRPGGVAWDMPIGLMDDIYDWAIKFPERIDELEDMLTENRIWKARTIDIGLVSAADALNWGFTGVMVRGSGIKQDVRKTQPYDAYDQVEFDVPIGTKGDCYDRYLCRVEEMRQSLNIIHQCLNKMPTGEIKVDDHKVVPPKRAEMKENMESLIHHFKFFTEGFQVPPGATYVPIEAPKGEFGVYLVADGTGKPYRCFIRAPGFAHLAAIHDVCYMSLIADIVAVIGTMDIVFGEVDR
Chain of C. briggsae complex I (A8XFG2 17-199): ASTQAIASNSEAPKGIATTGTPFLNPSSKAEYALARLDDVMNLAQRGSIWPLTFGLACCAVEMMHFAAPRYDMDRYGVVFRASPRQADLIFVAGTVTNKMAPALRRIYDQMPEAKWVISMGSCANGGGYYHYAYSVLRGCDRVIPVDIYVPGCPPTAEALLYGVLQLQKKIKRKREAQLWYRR
Chain of C. briggsae complex I (Q8HEC4 whole entry): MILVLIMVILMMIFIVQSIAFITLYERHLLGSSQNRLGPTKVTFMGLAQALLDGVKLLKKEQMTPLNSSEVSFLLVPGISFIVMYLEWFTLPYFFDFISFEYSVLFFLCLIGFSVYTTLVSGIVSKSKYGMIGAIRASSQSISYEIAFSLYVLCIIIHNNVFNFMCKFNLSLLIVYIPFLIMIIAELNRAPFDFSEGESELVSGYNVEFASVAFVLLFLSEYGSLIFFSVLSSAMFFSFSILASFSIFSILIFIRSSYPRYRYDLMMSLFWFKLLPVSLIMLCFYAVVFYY
The enzymatic activities of individual ETC complexes (I-IV) were assessed spectrophotometrically in isolated mitochondria using a Varioskan LUX Multimode plate reader (ThermoFisher Scientific). Mitochondrial pellets previously isolated were thawed on ice and resuspended in ice-cold isolation buffer (250 mM sucrose, 10 mM Tris (pH 7.5), 1 mM EDTA). The BCA assay (Walker, 1994) was used to quantify the protein concentration of mitochondria suspensions; solutions were diluted to a concentration of 0.2 mg/mL for use in all assays. For the complex I assay, mitochondria pellets were freeze-thawed on ice three times to increase enzyme accessibility. […] 20 μL mitochondria suspension was then added/mixed with a pipette to initiate the reaction. Immediately following the addition of mitochondria, absorbance was measured (complex I and II: 600 nm; complex III and IV: 550 nm) in 30 s intervals over 15 min. Enzymatic activity was determined in each reaction by plotting absorbance versus time and calculating the slope of the curve during the initial linear phase of the reaction. […] Percent activity of each complex was calculated by dividing the enzyme-specific activity of each well by the enzyme-specific activity of the corresponding solvent controls.
Chemical solutions were prepared in complex I assay buffer composed of 25 mM KPi buffer (pH 7.5), 3 mg/mL bovine serum albumin (BSA), 80 μM NADH, 60 μM decylubiquinone, 160 μM DCIP, 2 μM antimycin A and 2 mM KCN.
For preliminary screens of hit compounds, compounds were screened at 100 μM; data are the average of at least three biological replicates.

What is called pIC50 is the IC50 on a negative log10 scale, so that one unit is a factor of ten. Read a low pIC50 as a high IC50.

pIC50: −log10 of the molar value. Several values for one entry are separate records, joined by “and”; a condition that tells them apart may be missing. Identical values can stand only once. Like-named read-outs stand apart in the source and are kept apart here.

On to `COC(=O)Nc1nc2ccc(C(=O)c3ccccc3)cc2[nH]1` [mebendazole, reference compound], for which, in experiment [1], the “C. elegans L1 relative motility, 3-hour post 200 µM KCN dilution” value came to 1.000. Also, the “reduction in worm burden, H. polygyrus murine model” value with H. polygyrus (single 300 mg/kg dose) is listed as 63.5%.
For the compound `c1ccc2[nH]c(-c3cscn3)nc2c1` [Thiabendazole], the “C. elegans L1 relative motility, 3-hour post 200 µM KCN dilution” value in experiment [1] was found to be 1.000.
Turning to `Cc1nc2ccccc2n1Cc1ccc(Cl)cc1` [STK697993], the remaining activity at 0.0001 µM came out at 84.5% on C. briggsae complex I (C. briggsae mitochondria, 0.0001 µM, Mean, read-out: in vitro complex I activity relative to solvent control) and 88.5% on C. briggsae complex I (C. briggsae mitochondria, 0.0001 µM, single replicate, read-out: in vitro complex I activity relative to solvent control). In addition, the “in vitro complex I activity relative to solvent control” value at C. briggsae complex I (C. briggsae mitochondria, 0.0001 µM, single replicate) was 91.655% and 73.328%; at C. briggsae complex I (C. briggsae mitochondria, 0.0005 µM, single replicate), 92.151% and 96.046%; at C. briggsae complex I (C. briggsae mitochondria, 0.001 µM, single replicate) it was 98.678% and 90.340%; at C. briggsae complex I (C. briggsae mitochondria, 0.0025 µM, single replicate), 101.880% and 103.212%; on C. briggsae complex I (C. briggsae mitochondria, 0.005 µM, single replicate) it was 95.872% and 91.749%; on C. briggsae complex I (C. briggsae mitochondria, 0.013 µM, single replicate), 83.705% and 87.377%. Also, the “in vitro complex I activity relative to solvent control” value at C. briggsae complex I (C. briggsae mitochondria, 0.025 µM, single replicate) was 95.007% and 79.112% and 73.336%; on C. briggsae complex I (C. briggsae mitochondria, 0.063 µM, single replicate), 60.174% and 66.771% and 36.409%; at C. briggsae complex I (C. briggsae mitochondria, 0.125 µM, single replicate), 36.143% and 47.895% and 15.798%; on C. briggsae complex I (C. briggsae mitochondria, 0.313 µM, single replicate) it was 16.180% and 20.382% and 0.000%; at C. briggsae complex I (C. briggsae mitochondria, 0.625 µM, single replicate), 0.000% and 15.885%; on C. briggsae complex I (C. briggsae mitochondria, 1.5 µM, single replicate), 0.000% and 10.874%. Moreover, the “in vitro complex I activity relative to solvent control” value on C. briggsae complex I (C. briggsae mitochondria, 3 µM, single replicate) was 0.000% and 15.522%; on C. briggsae complex I (C. briggsae mitochondria, 15 µM, single replicate) it was 0.019% and 20.437% and 1.999%; on C. briggsae complex I (C. briggsae mitochondria, 37.5 µM, single replicate), 0.000% and 16.226%; at C. briggsae complex I (C. briggsae mitochondria, 75 µM, single replicate), 3.330% and 6.641% and 2.225%. Moreover, the remaining activity at 0.0005 µM on C. briggsae complex I (C. briggsae mitochondria, 0.0005 µM, Mean, read-out: in vitro complex I activity relative to solvent control) came out at 92.6%; on C. briggsae complex I (C. briggsae mitochondria, 0.0005 µM, single replicate, read-out: in vitro complex I activity relative to solvent control), 89.6%. Also, the remaining activity at 0.001 µM on C. briggsae complex I (C. briggsae mitochondria, 0.001 µM, Mean, read-out: in vitro complex I activity relative to solvent control) was found to be 98.3%; at C. briggsae complex I (C. briggsae mitochondria, 0.001 µM, single replicate, read-out: in vitro complex I activity relative to solvent control), 106%. For the same compound, the remaining activity at 0.0025 µM on C. briggsae complex I (C. briggsae mitochondria, 0.0025 µM, Mean, read-out: in vitro complex I activity relative to solvent control) was found to be 104%; at C. briggsae complex I (C. briggsae mitochondria, 0.0025 µM, single replicate, read-out: in vitro complex I activity relative to solvent control) it was 106%. In addition, the remaining activity at 0.005 µM came to 99.2% at C. briggsae complex I (C. briggsae mitochondria, 0.005 µM, Mean, read-out: in vitro complex I activity relative to solvent control) and 110% at C. briggsae complex I (C. briggsae mitochondria, 0.005 µM, single replicate, read-out: in vitro complex I activity relative to solvent control). For the same compound, the remaining activity at 0.013 µM was found to be 91% at C. briggsae complex I (C. briggsae mitochondria, 0.013 µM, Mean, read-out: in vitro complex I activity relative to solvent control) and 102% on C. briggsae complex I (C. briggsae mitochondria, 0.013 µM, single replicate, read-out: in vitro complex I activity relative to solvent control). In addition, the remaining activity at 0.025 µM on C. briggsae complex I (C. briggsae mitochondria, 0.025 µM, Mean, read-out: in vitro complex I activity relative to solvent control) came out at 82.5%. Moreover, the remaining activity at 0.063 µM on C. briggsae complex I (C. briggsae mitochondria, 0.063 µM, Mean, read-out: in vitro complex I activity relative to solvent control) is 54.5%. For the same compound, at C. briggsae complex I (C. briggsae mitochondria, 0.125 µM, Mean, read-out: in vitro complex I activity relative to solvent control), the remaining activity at 0.125 µM amounted to 33.3%. Further, the remaining activity at 0.313 µM at C. briggsae complex I (C. briggsae mitochondria, 0.313 µM, Mean, read-out: in vitro complex I activity relative to solvent control) was determined as 12.2%. Further, at C. briggsae complex I (C. briggsae mitochondria, 0.625 µM, Mean, read-out: in vitro complex I activity relative to solvent control), the remaining activity at 0.625 µM turned out to be 5.29%. Besides, the remaining activity at 1.5 µM on C. briggsae complex I (C. briggsae mitochondria, 1.5 µM, Mean, read-out: in vitro complex I activity relative to solvent control) came out at 3.62%. At C. briggsae complex I (C. briggsae mitochondria, 3 µM, Mean, read-out: in vitro complex I activity relative to solvent control), the remaining activity at 3 µM was 5.17%. In addition, the remaining activity at 15 µM on C. briggsae complex I (C. briggsae mitochondria, 15 µM, Mean, read-out: in vitro complex I activity relative to solvent control) turned out to be 7.49%. The remaining activity at 37.5 µM on C. briggsae complex I (C. briggsae mitochondria, 37.5 µM, Mean, read-out: in vitro complex I activity relative to solvent control) was determined as 5.41%. In addition, the remaining activity at 75 µM on C. briggsae complex I (C. briggsae mitochondria, 75 µM, Mean, read-out: in vitro complex I activity relative to solvent control) came out at 4.07%. The compound also gave a pIC50 against C. briggsae complex I (purified mitochondria) of 7.13.
With `COC(=O)Nc1nc2ccc(Sc3ccccc3)cc2[nH]1` [fenbendazole, reference compound], the “reduction in H. polygyrus worm burden” value in the experiment on H. polygyrus (single dose 100 mg/kg, mice) is recorded as 90%.
